Measurements as given in ChEMBL document CHEMBL1134020, “3,4-Dihydro-1-isoquinolinamines: a novel class of nitric oxide synthase inhibitors with a range of isoform selectivity and potency” (Bioorg Med Chem Lett, 2001).
Several values for one entry are separate records, joined by “and”; a condition that tells them apart may be missing. Equal values may be shown once.

How the values were obtained:
[1] = molecular target: T1, Nitric oxide synthase 3 (Homo sapiens, UniProt P29474); assay: Ability to inhibit conversion of [3H]L-Arg to [3H]L-citrulline catalyzed by endothelial NOS (e NOS) from HUVEC cells; type: functional, cell-based
T1 sequence (P29474 whole entry): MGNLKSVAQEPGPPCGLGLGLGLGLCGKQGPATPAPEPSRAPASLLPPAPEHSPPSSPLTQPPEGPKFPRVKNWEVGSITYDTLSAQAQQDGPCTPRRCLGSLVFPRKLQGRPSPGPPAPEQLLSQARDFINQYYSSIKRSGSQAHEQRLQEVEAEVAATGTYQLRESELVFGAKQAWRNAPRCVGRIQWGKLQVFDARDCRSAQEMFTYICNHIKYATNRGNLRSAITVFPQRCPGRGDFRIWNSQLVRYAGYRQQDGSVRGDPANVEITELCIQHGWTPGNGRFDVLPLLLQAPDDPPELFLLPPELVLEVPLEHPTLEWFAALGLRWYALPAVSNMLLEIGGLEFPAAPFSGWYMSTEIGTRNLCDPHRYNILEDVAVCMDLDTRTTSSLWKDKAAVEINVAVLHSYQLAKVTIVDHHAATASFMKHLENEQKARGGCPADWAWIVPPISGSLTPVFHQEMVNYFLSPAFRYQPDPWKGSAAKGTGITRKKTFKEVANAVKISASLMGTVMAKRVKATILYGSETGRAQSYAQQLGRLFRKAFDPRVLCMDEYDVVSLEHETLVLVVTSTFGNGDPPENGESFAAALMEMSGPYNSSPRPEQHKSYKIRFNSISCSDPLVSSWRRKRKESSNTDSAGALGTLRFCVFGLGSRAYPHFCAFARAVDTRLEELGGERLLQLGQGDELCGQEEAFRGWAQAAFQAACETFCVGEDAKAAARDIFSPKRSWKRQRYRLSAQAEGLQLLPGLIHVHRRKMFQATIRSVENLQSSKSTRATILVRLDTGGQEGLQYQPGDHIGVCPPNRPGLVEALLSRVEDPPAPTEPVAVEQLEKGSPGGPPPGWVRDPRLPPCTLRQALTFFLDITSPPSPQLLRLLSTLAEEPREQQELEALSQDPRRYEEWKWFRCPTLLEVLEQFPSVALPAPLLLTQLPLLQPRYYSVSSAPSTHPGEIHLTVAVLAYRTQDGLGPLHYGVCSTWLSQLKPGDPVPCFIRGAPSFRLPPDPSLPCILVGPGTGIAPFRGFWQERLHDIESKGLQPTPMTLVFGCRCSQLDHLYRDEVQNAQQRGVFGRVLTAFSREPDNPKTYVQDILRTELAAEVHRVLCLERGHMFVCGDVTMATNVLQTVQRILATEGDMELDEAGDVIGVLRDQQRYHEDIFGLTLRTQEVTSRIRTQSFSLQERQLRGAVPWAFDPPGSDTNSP

[2] = molecular target: Nitric oxide synthase 1 (Rattus norvegicus, UniProt P29476); assay: Inhibition of conversion of [3H]L-Arg to [3H]L-citrulline catalyzed by neuronal NOS (n NOS) from rat cerebellum; type: functional, tissue-based
[3] = molecular target: T2, Nitric oxide synthase, inducible (Homo sapiens, UniProt P35228); assay: Ability to inhibit conversion of [3H]L-Arg to [3H]L-citrulline catalyzed by inducible NOS (i NOS) from human DLD-1 cells; type: functional, cell-based
[4] = molecular target: T3, Nitric oxide synthase 3 (Homo sapiens) (UniProt P29474); assay: Ability (at 100 catalyzed by endothelial NOS (e NOS) from HUVEC cells; type: functional, cell-based; conditions: concentration not given here
T3 sequence (whole entry): T1 sequence (P29474 whole entry)

[5] = species on record: Rattus norvegicus; assay: Ability (at 100 catalyzed by neuronal NOS (n NOS) from rat cerebellum; type: functional
[6] = molecular target: T2, Nitric oxide synthase, inducible; assay: Inhibitory concentration against nitric oxide synthesis in intact DLD-1 cells; type: functional, cell-based
[7] = test system: DLD-1; assay: (§1) Ability (at 100 catalyzed by inducible NOS (i NOS) from human DLD-1 cells; type: functional, cell-based
[8] = test system: DLD-1; assay: as §1; type: functional

T2 sequence (P35228 whole entry): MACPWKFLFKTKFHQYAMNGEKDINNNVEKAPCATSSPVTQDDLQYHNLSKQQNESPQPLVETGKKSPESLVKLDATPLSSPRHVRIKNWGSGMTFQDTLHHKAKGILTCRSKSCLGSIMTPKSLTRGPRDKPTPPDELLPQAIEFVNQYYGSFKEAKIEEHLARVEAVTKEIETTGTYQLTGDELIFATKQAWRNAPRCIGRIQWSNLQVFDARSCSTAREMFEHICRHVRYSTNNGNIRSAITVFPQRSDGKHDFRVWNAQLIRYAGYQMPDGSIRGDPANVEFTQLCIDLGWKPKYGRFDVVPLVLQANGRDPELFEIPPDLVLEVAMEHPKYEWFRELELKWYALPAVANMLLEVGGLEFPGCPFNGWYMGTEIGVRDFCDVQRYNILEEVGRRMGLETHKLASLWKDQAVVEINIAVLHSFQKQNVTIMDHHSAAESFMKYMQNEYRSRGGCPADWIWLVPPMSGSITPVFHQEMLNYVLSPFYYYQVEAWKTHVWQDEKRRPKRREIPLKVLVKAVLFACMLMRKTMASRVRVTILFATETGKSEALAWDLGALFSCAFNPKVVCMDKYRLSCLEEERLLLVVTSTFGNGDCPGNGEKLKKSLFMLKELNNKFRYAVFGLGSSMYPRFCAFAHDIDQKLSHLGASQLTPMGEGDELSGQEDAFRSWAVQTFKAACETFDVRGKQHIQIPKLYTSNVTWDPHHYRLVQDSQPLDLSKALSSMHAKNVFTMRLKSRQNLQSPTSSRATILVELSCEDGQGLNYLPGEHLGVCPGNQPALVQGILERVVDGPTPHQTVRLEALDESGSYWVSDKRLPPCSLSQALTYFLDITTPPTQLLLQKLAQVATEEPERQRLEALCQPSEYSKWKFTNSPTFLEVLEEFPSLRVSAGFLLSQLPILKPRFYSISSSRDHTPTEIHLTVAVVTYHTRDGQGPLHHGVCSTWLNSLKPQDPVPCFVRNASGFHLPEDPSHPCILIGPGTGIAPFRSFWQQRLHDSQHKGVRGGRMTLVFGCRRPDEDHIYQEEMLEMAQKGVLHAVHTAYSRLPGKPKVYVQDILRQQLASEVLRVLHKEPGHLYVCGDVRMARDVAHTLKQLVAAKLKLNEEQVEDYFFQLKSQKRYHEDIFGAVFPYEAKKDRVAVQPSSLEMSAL
Chain of Nitric oxide synthase 1 (P29476 whole entry): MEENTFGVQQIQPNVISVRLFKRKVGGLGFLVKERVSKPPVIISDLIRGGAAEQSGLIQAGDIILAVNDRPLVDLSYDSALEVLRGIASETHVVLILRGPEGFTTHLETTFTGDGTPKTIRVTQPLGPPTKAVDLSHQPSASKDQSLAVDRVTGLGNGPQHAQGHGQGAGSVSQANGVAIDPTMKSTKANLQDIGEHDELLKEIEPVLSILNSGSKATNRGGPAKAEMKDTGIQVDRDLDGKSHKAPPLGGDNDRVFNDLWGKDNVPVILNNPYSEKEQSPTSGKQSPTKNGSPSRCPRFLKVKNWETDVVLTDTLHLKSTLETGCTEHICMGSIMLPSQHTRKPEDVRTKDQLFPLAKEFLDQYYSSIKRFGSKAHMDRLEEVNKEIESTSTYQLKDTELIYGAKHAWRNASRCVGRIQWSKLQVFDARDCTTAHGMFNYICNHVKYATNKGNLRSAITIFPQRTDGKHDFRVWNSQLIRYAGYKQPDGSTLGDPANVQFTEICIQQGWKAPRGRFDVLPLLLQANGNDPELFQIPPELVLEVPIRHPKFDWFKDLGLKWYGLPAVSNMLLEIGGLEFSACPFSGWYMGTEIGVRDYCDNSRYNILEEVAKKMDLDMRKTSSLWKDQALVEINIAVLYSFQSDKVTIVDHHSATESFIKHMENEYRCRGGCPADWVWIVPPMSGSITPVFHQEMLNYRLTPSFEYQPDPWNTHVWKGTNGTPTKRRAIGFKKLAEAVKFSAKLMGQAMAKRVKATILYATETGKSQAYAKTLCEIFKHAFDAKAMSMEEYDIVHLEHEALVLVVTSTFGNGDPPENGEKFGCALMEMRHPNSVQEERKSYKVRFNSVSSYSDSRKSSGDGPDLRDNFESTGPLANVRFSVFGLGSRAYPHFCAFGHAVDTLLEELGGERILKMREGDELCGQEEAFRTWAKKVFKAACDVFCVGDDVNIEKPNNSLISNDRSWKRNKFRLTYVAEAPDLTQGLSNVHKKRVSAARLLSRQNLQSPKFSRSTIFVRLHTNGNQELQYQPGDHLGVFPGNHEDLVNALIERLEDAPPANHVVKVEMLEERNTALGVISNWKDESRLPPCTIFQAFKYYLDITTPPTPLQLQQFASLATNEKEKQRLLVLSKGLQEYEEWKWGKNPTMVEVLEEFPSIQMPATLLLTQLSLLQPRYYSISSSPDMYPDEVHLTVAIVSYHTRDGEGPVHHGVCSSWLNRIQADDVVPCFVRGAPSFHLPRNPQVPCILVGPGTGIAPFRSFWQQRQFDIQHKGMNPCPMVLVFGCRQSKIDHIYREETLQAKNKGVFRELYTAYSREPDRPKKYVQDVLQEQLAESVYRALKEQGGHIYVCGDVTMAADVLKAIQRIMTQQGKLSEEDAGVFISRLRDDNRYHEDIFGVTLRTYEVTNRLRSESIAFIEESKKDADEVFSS

| Compound | IC50 [1] [µM] | IC50 [2] [µM] | IC50 [3] [µM] | inhibition [4] | Inhibition [5] [%] | IC50 [6] [µM] | Inhibition [7] [%] | Inhibition [8] [%] |
| --- | --- | --- | --- | --- | --- | --- | --- | --- |
| NC1=NC(c2cccs2)Cc2ccccc21 (centres undefined) | 8 | 2 | 2.7 |  |  |  |  |  |
| NC1=NC(c2ccccc2)Cc2cccc(Cl)c21 (centres undefined) | 6 |  |  | < 25% | 25 |  |  |  |
| NC1=NC(c2ccc(F)cc2)Cc2cccc(F)c21 (centres undefined) |  | 16 |  | < 25% |  | 350 |  |  |
| N=C(N)NN [PIMAGEDINE] | 72 | 6 | 4.5 |  |  |  |  |  |
| NC1=NC(C2CC2)Cc2ccccc21 (centres undefined) | 3.6 | 1.5 | 1.3 |  |  | 300 |  |  |
| NC1=NC(c2ccco2)Cc2ccccc21 (centres undefined) | 5 | 0.9 | 1.2 |  |  |  |  |  |
| NC1=NC(c2ccccc2)Cc2ccccc21 (centres undefined) | 9 | 12 |  | < 25% |  |  |  |  |
| CC(=N)NCCCC[C@H](N)C(=O)O [L-NIL] | 2.4 | 1.6 | 0.13 |  |  | 470 |  |  |
| C#CC1Cc2ccccc2C(N)=N1 (centres undefined) | 0.9 | 0.4 | 2.7 |  |  |  |  |  |
| NC1=NCCCc2ccccc21 | 12 | 2 |  |  |  |  | < 25 |  |
| NC1=NC(c2ccc(F)cc2)Cc2cc(F)ccc21 (centres undefined) | 100 | 20 | 9 |  |  |  |  |  |
| NC1=NC(c2ccc(Cl)cc2)Cc2ccccc21 (centres undefined) | 86 | 30 |  |  |  |  |  | 46 |
| NC1=NC(c2ccc(F)cc2)Cc2ccc(F)cc21 (centres undefined) | 55 | 44 |  |  |  |  |  | 43 |
| NC1=NC(c2ccc(F)cc2)Cc2cccc(Cl)c21 (centres undefined) | 5 | 100 |  | 39% |  | 350 |  |  |
| NC1=NC(c2ccc(F)cc2)Cc2ccccc21 (centres undefined) | 40 | 9 | 5.5 |  |  |  |  |  |
| NC1=NC(c2ccccc2F)Cc2ccccc21 (centres undefined) | 44 | 13 | 33 |  |  |  |  |  |
| NC1=NC(c2nccs2)Cc2ccccc21 (centres undefined) | 19 | 8 | 4.2 |  |  | 880 |  |  |
| COC(=O)[C@@H](N)CCCNC(=N)N[N+](=O)[O-] [L-NAME] | 2.7 | 0.15 | 14 |  |  | 300 |  |  |
| NC1=NCCc2ccccc21 | 2 | 0.4 | 32 |  |  |  |  |  |
| NC1=NC(c2ccccc2)Cc2cccc(F)c21 (centres undefined) | 80 | 2 | 0.55 |  |  | 130 |  |  |
| NC1=NC(c2ccc(F)cc2)Cc2c(F)cccc21 (centres undefined) | 44 | 5 | 4.7 |  |  |  |  |  |
| NC1=NC(c2cccc(F)c2)Cc2ccccc21 (centres undefined) | 9 | 10 |  | < 25% |  |  |  |  |
| CC1Cc2ccccc2C(N)=N1 (centres undefined) | 4 | 3 | 18 |  |  |  |  |  |
| NC1=NC(c2ncc[nH]2)Cc2ccccc21 (centres undefined) |  |  |  | 47% and < 25% | <25 |  |  |  |
| CC1(C)Cc2ccccc2C(N)=N1 |  | 10 |  | < 25% |  |  |  |  |
